“Also recorded” adds a separate entry of the source. Like-named read-outs stand apart in the source and are kept apart here. One block for each compound: values may come before it.
Key:
[1] = molecular target: taste bud P4(B) subfractions; experiment: Specific binding: competition of 14C sugars or SSS with unlabeled homologous and heterologous sugars, Scatchard analysis; design: species or system bovine; conditions: for Kd: mean ± 1 SEM; for specific binding (competition of 14C sugar or SSS with homologous unlabeled sugar or SSS): taste bud P4(B), FIG. 7
[2] = cited from earlier work
[3] = tested on: taste bud P4(B) subfractions; experiment: Displacement of bound 14C sucrose by unlabeled sucrose; assay type: binding, bovine; conditions: after addition of unlabeled sucrose (0.01-1 mM), FIG. 5; 20 min
Method: (§1) All binding studies were carried out in plastic micro test tubes in a constant temperature shaking bath. For these studies KRB, suspensions of the initial filtrates, subfractions and ^14 C labeled and/or unlabeled sugars were incubated in a final volume of 100 μl. After incubation the tubes were placed in an ice bath, centrifuged, the supernatant aspirated and 10 μl KRB layered on top of the pellet.
(§2) The KRB was then aspirated, the top of the test tube cut off with a razor blade just above the bellet, placed into 10 ml Aquasol (New England Nuclear Corp., Boston, Mass.) and the radioactivity determined in a liquid scintillation spectrophotometer. Controls, without filtrates or subfractions, were also included. These controls represent background radioactivity composed mainly of ^14 C sugars bound to the walls of the plastic test tubes. This background radioactivity was always found to be less than 1% of the lowest level obtained in any study with added tissue fractions. Calculations of ^14 C sugar binding also included a correction for non-specific binding (i.e., ^14 C sugar binding not inhibited by an excess of the unlabeled homologous sugar, which occurred when tissue suspensions were used. This value (40%) was the mean calculated from the results of 56 duplicate experiments. […]

[4] = tested on: taste bud subfraction P4(B); experiment: Time and temperature effects on 14C sucrose binding; design: species or system bovine; conditions: 26 μM 14C sucrose
Method: as §1, §2

[5] = tested on: epithelial P4(B) subfractions; experiment: Displacement of bound 14C sucrose by unlabeled sucrose (epithelial control); assay type: binding, bovine
Method: as §1, §2

[6] = tested on: taste bud filtrates and B subfractions [P2,3,4(B)]; experiment: Binding of 14C sugars to taste bud filtrates and B subfractions; design: species or system bovine; conditions: for 14C sugar binding / Relative enrichment of sugar binding compared to the initial filtrate: Bud; for 14C sugar binding: 30 min at 30° C
Method: (§3) The following procedure was utilized in tastant evaluation according to the process of this invention: Protein concentrations were determined by the methods of Lowry et al., (1951) J. Biol. […] According to density, physical appearance as determined by using electron microscopic morphology enzymatic activity and chemical analysis, B subfractions from taste buds and epithelial tissues achieved the greatest membrane purification compared with other subfractions. Among the taste bud B subfractions, P4(B) was morphologically more homogeneous with respect to membranes than P3(B) whereas P2(B) was the least homogeneous of all. Epithelial tissue B subfractions contained mainly fibrous tissue and few differences were found in morphology, density, enzymatic activity or chemical analysis between P2(B) or P4(B) subfractions. Taste bud and epithelial tissue D subfractions contained relatively few membrane fragments compared to the large amount of other cellular organelles present and therefore were not included in these studies. […] Each filtrate and subfraction was washed three times with calcium free, 0.2 M Krebs-Ringer bicarbonate (KRB) pH 7.4, suspended in the same buffer in a final volume of 2 ml and frozen in liquid nitrogen. No detectable change in binding characteristics from suspensions of taste bud or epithelial tissue fractions was observed after storage at -80° for as long as two months. All binding studies were carried out in plastic micro test tubes in a constant temperature shaking bath. For these studies KRB, suspensions of the initial filtrates, subfractions and ^14 C labeled and/or unlabeled sugars were incubated in a final volume of 100 μl. After incubation the tubes were placed in an ice bath, centrifuged, the supernatant aspirated and 10 μl KRB layered on top of the pellet. The KRB was then aspirated, the top of the test tube cut off with a razor blade just above the bellet, placed into 10 ml Aquasol (New England Nuclear Corp., Boston, Mass.) and the radioactivity determined in a liquid scintillation spectrophotometer. Controls, without filtrates or subfractions, were also included. […] The tubes were then placed in an ice bath for 3 minutes, and then centrifuged at 15,000 rpm for 6 min.

[7] = tested on: non-taste bud bearing epithelial tissue filtrates and B subfractions [P2,4(B)]; experiment: Binding of 14C sugars to non-taste bud bearing epithelial tissue filtrates and B subfractions (control); design: species or system bovine; conditions: Epi; for 14C sugar binding: 30 min at 30° C
Method: as §3

[8] = behavioral basis, cow; cited from earlier work
[9] = tested on: taste bud subfraction P4(B); experiment: Binding inhibition of 14C sucrose by various substances; design: species or system bovine
[10] = tested on: epithelial tissue P4(B) subfractions; experiment: Specific binding: competition of 14C sugars or SSS with unlabeled homologous sugars (epithelial control); design: species or system bovine; conditions: FIG. 7
Method: as §1, with “pellet. The KRB was then aspirated, the top of the test tube cut off with a razor blade just above the bellet, placed into 10 ml Aquasol (New England Nuclear Corp., Boston, Mass.) and the radioactivity determined in a liquid scintillation spectrophotometer. Controls, without filtrates or subfractions, were also included.” for “pellet.”

[11] = Filtrate, 14C glucose 200 μM, fructose 400 μM, sucrose 26 μM
[12] = maximal concentration of unlabelled sugar, range of values

Compound: O=C1NS(=O)(=O)c2ccccc21 [SACCHARINE, saccharine]
Kd ([1]; non-linear Scatchard plot, primary class of binding sites, read-out: Kd (dissociation constant), K1): 18.3 ± 3.9 mM
Kd ([1]; non-linear Scatchard plot, secondary class of binding sites, read-out: Kd (dissociation constant), K2): 66.2 ± 6.8 mM
q (concentration of sugar or SSS bound per mg subfraction protein), K1 ([1]; primary class of binding sites): 2.7 ± 1.0 mM/mg protein
q (concentration of sugar or SSS bound per mg subfraction protein), K2 ([1]; secondary class of binding sites): 6.4 ± 0.4 mM/mg protein
specific binding (competition of 14C sugar or SSS with homologous unlabeled sugar or SSS) [1]: occurred

Compound: [Cl-].[Cl-].[Zn+2] [ZnCl2]
sucrose binding activity restored, of the initial activity measured in the absence of EDTA ([9]; 5 mM EDTA plus 20 mM Zn++): about 85%

Compound: OC[C@H]1O[C@@H](O[C@H]2[C@H](O)[C@@H](O)C(O)O[C@@H]2CO)[C@H](O)[C@@H](O)[C@H]1O (stereo partly shown) [lactose]
specific binding (competition of 14C sugar or SSS with homologous unlabeled sugar or SSS) [10]: did not compete; also recorded: did not bind specifically
specific binding (competition of 14C sugar or SSS with homologous unlabeled sugar or SSS) [1]: did not compete; also recorded: did not bind specifically

Second part, led by results:

maximum displacement of the 14C sucrose initially bound [3]: about 80%
increase of sucrose binding activity following increase in incubation temperature from 0° C. to 30° C. ([4]; FIG. 3): four
time to plateau of 14C sucrose binding ([4]; at 30° C.): about 25 min
reversal of 14C sucrose binding by excess unlabeled sucrose [5]: could not be reversed
14C sugar binding [6, 11]: 36000 cpm/mg protein
Relative enrichment of sugar binding compared to the initial filtrate ([6]; P2(B)): 3.1
14C sugar binding ([6]; P2(B)): 113000 cpm/mg protein
Relative enrichment of sugar binding compared to the initial filtrate ([6]; P3(B)): 7.0
14C sugar binding ([6]; P3(B)): 255000 cpm/mg protein
Relative enrichment of sugar binding compared to the initial filtrate ([6]; P4(B)): 23.8
14C sugar binding ([6]; P4(B)): 868000 cpm/mg protein
increase in sugar binding compared to the initial filtrate ([6]; taste bud subfraction P3(B)): 7 fold
increase in sugar binding compared to the initial filtrate ([6]; taste bud subfraction P4(B)): 24 fold
competition of unlabeled sugar with fructose binding ([1]; FIG. 8, in words): competed with both glucose and fructose
competition of unlabeled sugar with glucose binding ([1]; FIG. 8, in words): competed with both glucose and fructose
Kd ([1]; Scatchard plot, single class of sites, read-out: Kd (dissociation constant)): 1.1 ± 0.4 mM
Inhibition (%) of 14C Fructose binding by unlabelled sugar [1, 12]: 50-60%
Inhibition (%) of 14C Glucose binding by unlabelled sugar [1, 12]: 60-65%
Inhibition (%) of 14C Sucrose binding by unlabelled sugar [1, 12]: 70-80%
Inhibition (%) of 14C Sucrose binding by unlabelled sugar ([1]; maximal concentration of unlabelled sugar, range of values, listed as sucrose): about 80%
Relative Binding Inhibition ([1]; section SUCROSE (as the 14C sugar per footnote) with each unlabelled sugar, homologous set at 100): 100%
q (concentration of sugar or SSS bound per mg subfraction protein) ([1]; single class of sites): 51 ± 8 mM/mg protein
specific binding (competition of 14C sugar or SSS with homologous unlabeled sugar or SSS) [1]: occurred
14C sugar binding [7, 11]: 33000 cpm/mg protein
Relative enrichment of sugar binding compared to the initial filtrate ([7]; P2(B)): 1.1
14C sugar binding ([7]; P2(B)): 37000 cpm/mg protein
Relative enrichment of sugar binding compared to the initial filtrate ([7]; P4(B)): 0.5
14C sugar binding ([7]; P4(B)): 18000 cpm/mg protein
Compound: OC[C@H]1O[C@@](CO)(O[C@H]2O[C@H](CO)[C@@H](O)[C@H](O)[C@H]2O)[C@@H](O)[C@@H]1O [Sucrose, sucrose]
Recognition thresholds in man ([2]; man): 0.01 to 0.03 M
detection thresholds in normal man ([2]; reported as low as): ≥ 5 mM
bovine discrimination thresholds [8]: 0.03 M

inhibition of 14C sucrose binding ([9]; urea 5M, 26 μM 14C sucrose): ~30%
Compound: NC(N)=O [urea]
